The experiment addresses T1, USP11 (recombinant USP11 protein) (Homo sapiens, UniProt P51784).
T1 construct: commercial recombinant human protein from Sf9 insect cells; His tag implied by RED-tris-NTA labelling
As to the kind of experiment: microscale thermophoresis. Format: binding.

T1 sequence (P51784 whole entry): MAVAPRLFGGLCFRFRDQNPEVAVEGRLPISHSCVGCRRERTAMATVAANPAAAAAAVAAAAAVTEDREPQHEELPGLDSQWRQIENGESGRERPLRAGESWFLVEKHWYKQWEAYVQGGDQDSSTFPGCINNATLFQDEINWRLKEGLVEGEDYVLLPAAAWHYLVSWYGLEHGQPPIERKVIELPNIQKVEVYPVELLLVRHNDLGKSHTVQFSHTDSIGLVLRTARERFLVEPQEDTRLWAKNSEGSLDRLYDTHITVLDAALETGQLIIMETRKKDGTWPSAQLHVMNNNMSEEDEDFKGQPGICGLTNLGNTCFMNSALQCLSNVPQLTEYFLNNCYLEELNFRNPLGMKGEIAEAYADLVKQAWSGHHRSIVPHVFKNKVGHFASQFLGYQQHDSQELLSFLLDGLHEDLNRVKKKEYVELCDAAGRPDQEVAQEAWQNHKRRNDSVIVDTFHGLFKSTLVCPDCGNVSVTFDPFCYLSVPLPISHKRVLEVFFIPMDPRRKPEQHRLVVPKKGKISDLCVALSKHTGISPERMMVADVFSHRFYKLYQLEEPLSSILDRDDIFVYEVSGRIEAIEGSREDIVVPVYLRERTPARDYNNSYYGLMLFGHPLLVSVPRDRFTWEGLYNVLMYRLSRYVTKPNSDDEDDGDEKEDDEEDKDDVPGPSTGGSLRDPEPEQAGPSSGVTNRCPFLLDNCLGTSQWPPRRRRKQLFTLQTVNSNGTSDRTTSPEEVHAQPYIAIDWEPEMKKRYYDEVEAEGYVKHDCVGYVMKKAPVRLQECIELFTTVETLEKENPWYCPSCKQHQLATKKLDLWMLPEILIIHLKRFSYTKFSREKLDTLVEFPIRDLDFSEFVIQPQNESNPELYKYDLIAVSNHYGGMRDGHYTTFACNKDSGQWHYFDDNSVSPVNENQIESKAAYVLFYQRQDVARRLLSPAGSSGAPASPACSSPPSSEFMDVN

For orientation: Kd means the free concentration of one partner at which half of the binding sites on the other are occupied at equilibrium, for simple one-to-one binding. Take `O=C(O)[C@@H]1CCCN1` [IsoLiPro]: the equilibrium dissociation constant (Kd) was 43.4 µM.

Source of the values: publication PMC11555261, “Targeting USP11 regulation by a novel lithium-organic coordination compound improves neuropathologies and cognitive functions in Alzheimer transgenic mice” (EMBO Molecular Medicine, 2024).
